Patent US5627193A, “Quinoline-4-carbonylguanidine derivatives, process for producing the same and pharmaceutical preparations containing the compounds” (Mitsui Toatsu Chemicals, Inc., priority 1995, dated 1997)

Columns and labels:
[1] = biological target: T1, NHE (Na^+ /H^+ exchanger) (Rattus norvegicus, UniProt P26431); assay: NHE inhibitory activity (recovery of the pH in cells after acid load, BCECF, rat mesenteric artery); assay type: cell-based; settings: read-out: Percent NHE inhibition (%); for inhibition at 0.1 µM: Conc. 0.1 μM; for inhibition at 1 µM: Conc. 1 μM
T1 construct: A rat mesenteric artery was isolated; from tissue; host or cells: isolated rat mesenteric artery segments
Description: The NHE inhibitory activity was measured by the following method using a pH in cells as an index.
A rat mesenteric artery was isolated, and was loaded with a pH-sensitive dye BCECF. Subsequently, the tissue segments were mounted in a bath of an intracellular ion concentration measurement device (CAF-110, manufactured by Japan Spectral Co., Ltd.). The pH in cells was measured in terms of a ratio of fluorescent intensities through 2-wavelength excitation of 495 nm (pH-sensitive wavelength)/450 nm (pH-non-sensitive wavelength).
The pH in cells was shifted into acid through pretreatment with 20 mM ammonium chloride to activate NHE. At this time, when Na^+ ions were absent in an external solution, the intracellular acidosis was maintained. When Na^+ ions were present in an external solution, the pH in cells was recovered to a control value. This recovery of the pH in cells was ascribable to the activation of NHE. The NHE inhibitory activity of the medication was examined depending on whether or not this recovery was suppressed. The percent NHE inhibition was calculated from a change in pH (ΔpH) measured by the above-mentioned method using the following formula.
Percent NHE inhibition (%)={1-ΔpH (in the presence of a medication)/ΔpH (in the absence of a medication)}×100
This test was conducted by the method of C. D. Foster et al. [Am. J. Physiol., 262, 31, H1651-H1655 (1992)]. For comparison, the test was conducted with respect to guanidinocarbonylisoquinoline derivatives described in JP A 6-211799 (Family: EP590455).

rat = assay: Effect on ischemic arrhythmia in the rat (left coronary artery ligated for 30 minutes); assay type: in vivo; settings: 1 mg/kg i.v., five minutes before the ligation; rats with arrhythmia / rats
Description: A rat was anesthetized with pentobarbital, and the left chest was opened under artificial respiration. Then, the left coronary artery was ligated for 30 minutes. The effect of the test compound on ischemic arrhythmia was examined. The test agent was administered intravenously (i.v.) five minutes before the ligation. The arrhythmias were evaluated according to the guidelines of the Lambeth conventions [Cardiovasc. Res., 22, 447-455 (1988)].

[2] = Toxicity test, mortality of mice after 24 hours; settings: mouse, in vivo, iv, 100 mg/kg (i.v.), 3 mice
Description: The test compound was administered to a ddy-strain male mouse, and the toxicity was examined. The test compound was administered intravenously (i.v.) in a dose of 100 mg/kg, and the toxicity was evaluated in terms of mortality of mice after 24 hours of the administration (number of specimens: one group consisting of 3 mice).

cardiac hypertrophy = settings: Circulation, 86 (Suppl. I) I-177 (1992); cited from earlier work

T1 sequence (P26431 whole entry): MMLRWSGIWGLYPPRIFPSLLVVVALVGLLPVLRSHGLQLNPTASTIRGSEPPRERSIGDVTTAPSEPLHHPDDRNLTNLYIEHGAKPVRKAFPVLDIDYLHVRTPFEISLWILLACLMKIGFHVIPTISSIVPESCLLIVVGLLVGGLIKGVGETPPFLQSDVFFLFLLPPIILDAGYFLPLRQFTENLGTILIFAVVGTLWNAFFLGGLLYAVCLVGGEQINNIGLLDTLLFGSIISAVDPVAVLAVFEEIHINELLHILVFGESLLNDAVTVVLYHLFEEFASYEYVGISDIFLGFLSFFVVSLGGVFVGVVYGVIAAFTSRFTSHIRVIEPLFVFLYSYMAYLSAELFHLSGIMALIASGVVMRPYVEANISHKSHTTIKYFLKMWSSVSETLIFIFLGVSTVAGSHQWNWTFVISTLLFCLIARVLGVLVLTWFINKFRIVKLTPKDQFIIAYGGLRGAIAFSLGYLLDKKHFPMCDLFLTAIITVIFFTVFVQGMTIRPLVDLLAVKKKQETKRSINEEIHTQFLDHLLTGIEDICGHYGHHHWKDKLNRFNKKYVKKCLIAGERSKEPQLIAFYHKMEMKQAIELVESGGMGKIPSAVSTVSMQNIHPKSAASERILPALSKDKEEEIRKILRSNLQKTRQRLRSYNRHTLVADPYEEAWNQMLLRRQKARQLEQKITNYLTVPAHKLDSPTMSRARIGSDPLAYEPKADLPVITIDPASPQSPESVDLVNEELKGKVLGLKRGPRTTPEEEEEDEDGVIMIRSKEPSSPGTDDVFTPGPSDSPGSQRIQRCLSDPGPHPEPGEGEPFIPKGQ
T1 sequence (P61023 2-195 partner limits assumed): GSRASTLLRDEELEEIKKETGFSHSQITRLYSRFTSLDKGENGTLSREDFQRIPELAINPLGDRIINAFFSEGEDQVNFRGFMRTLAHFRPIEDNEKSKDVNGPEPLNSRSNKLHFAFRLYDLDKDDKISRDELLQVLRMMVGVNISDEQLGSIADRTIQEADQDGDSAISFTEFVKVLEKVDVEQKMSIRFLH

COc1ccc2c(C(=O)N=C(N)N)cc(-c3ccccc3C)nc2c1OC [Example 43, 2-(2'-methylphenyl)-7,8-dimethoxyquinoline-4-carbonylguanidine]
inhibition at 0.1 µM [1]: 28%
inhibition at 1 µM [1]: 37.6%

COc1ccc2c(C(=O)N=C(N)N)cc(-c3ccccc3)nc2c1 [Example 34, 2-phenyl-7-methoxyquinoline-4-carbonylguanidine]
inhibition at 0.1 µM [1]: 29.8%
inhibition at 1 µM [1]: 53%

COc1cc(OC)c2c(C(=O)N=C(N)N)cc(-c3ccccc3)nc2c1 [Example 36, 2-phenyl-5,7-dimethoxyquinoline-4-carbonylguanidine]
inhibition at 0.1 µM [1]: 53.2%
inhibition at 1 µM [1]: 69.9%
Incidence of arrhythmia, VF (ventricular fibrillation) (rat): 0/4
Incidence of arrhythmia, VT (ventricular tachycardia) (rat): 2/4

Cc1c(-c2ccccc2)nc2ccccc2c1C(=O)N=C(N)N [Example 21, 2-phenyl-3-methylquinoline-4-carbonylguanidine]
inhibition at 0.1 µM [1]: 1.5%
inhibition at 1 µM [1]: 45%

NC(N)=NC(=O)c1cc(-c2ccccc2)nc2c(Cl)cccc12 [Example 31, 2-phenyl-8-chloroquinoline-4-carbonylguanidine]
inhibition at 0.1 µM [1]: 12%
inhibition at 1 µM [1]: 57%

COc1cc2nc(-c3ccccc3C)cc(C(=O)N=C(N)N)c2cc1OC [Example 39, 2-(2'-methylphenyl)-6,7-dimethoxyquinoline-4-carbonylguanidine]
inhibition at 0.1 µM [1]: 3.4%
inhibition at 1 µM [1]: 41.5%

COc1ccc(OC)c2c(C(=O)N=C(N)N)cc(-c3ccccc3C)nc12 [Example 42, 2-(2'-methylphenyl)-5,8-dimethoxyquinoline-4-carbonylguanidine]
mortality at 24 h [2]: 0%
inhibition at 0.1 µM [1]: 72.7%
inhibition at 1 µM [1]: 89.1%
Incidence of arrhythmia, VF (ventricular fibrillation) (rat): 0/4
Incidence of arrhythmia, VT (ventricular tachycardia) (rat): 2/4

Cc1ccc(-c2cc(C(=O)N=C(N)N)c3ccccc3n2)cc1 [Example 2, 2-(4'-methylphenyl)quinoline-4-carbonylguanidine]
inhibition at 0.1 µM [1]: 10.6%
inhibition at 1 µM [1]: 41.4%

NC(N)=NC(=O)c1cc(-c2ccccc2)nc2c(N)cccc12 [Example 48, 2-phenyl-8-aminoquinoline-4-carbonylguanidine]
inhibition at 0.1 µM [1]: 30.6%
inhibition at 1 µM [1]: 41.7%

NC(N)=NC(=O)c1cc(-c2ccccc2)nc2ccc(Cl)cc12 [Example 29, 2-phenyl-6-chloroquinoline-4-carbonylguanidine]
inhibition at 0.1 µM [1]: 0%
inhibition at 1 µM [1]: 38.6%

NC(N)=NC(=O)c1cc(-c2ccc(F)cc2)nc2ccccc12 [Example 13, 2-(4'-fluorophenyl)quinoline-4-carbonylguanidine]
inhibition at 0.1 µM [1]: 14.4%
inhibition at 1 µM [1]: 39.8%

NC(N)=NC(=O)c1cc(-c2cccc([N+](=O)[O-])c2)nc2ccccc12 [Example 19, 2-(3'-nitrophenyl)quinoline-4-carbonylguanidine]
inhibition at 0.1 µM [1]: 22.3%
inhibition at 1 µM [1]: 35.6%

Cc1cccc(-c2cc(C(=O)N=C(N)N)c3ccccc3n2)c1 [Example 3, 2-(3'-methylphenyl)quinoline-4-carbonylguanidine]
inhibition at 0.1 µM [1]: 21.2%
inhibition at 1 µM [1]: 59.8%

Cc1ccc2nc(-c3ccccc3)cc(C(=O)N=C(N)N)c2c1 [Example 22, 2-phenyl-6-methylquinoline-4-carbonylguanidine]
inhibition at 0.1 µM [1]: 28.9%
inhibition at 1 µM [1]: 57.9%

COc1cccc2c(C(=O)N=C(N)N)cc(-c3ccccc3)nc12 [Example 35, 2-phenyl-8-methoxyquinoline-4-carbonylguanidine]
inhibition at 0.1 µM [1]: 47.4%
inhibition at 1 µM [1]: 63.6%

Cc1cc(Cl)cc2c(C(=O)N=C(N)N)cc(-c3ccccc3)nc12 [Example 32, 2-phenyl-6-chloro-8-methylquinoline-4-carbonylguanidine]
inhibition at 0.1 µM [1]: 28.6%
inhibition at 1 µM [1]: 35.7%

CS(=O)(=O)Nc1cccc2c(C(=O)N=C(N)N)cc(-c3ccccc3)nc12 [Example 50, 2-phenyl-8-methanesulfonylaminoquinoline-4-carbonylguanidine]
inhibition at 0.1 µM [1]: 46.2%
inhibition at 1 µM [1]: 66.2%

COCOc1ccc2c(C(=O)N=C(N)N)cc(-c3ccccc3C)nc2c1 [Example 45, 2-(2'-methylphenyl)-7-methoxymethyloxyquinoline-4-carbonylguanidine]
inhibition at 0.1 µM [1]: 35%
inhibition at 1 µM [1]: 46.5%

NC(N)=NC(=O)c1cc(-c2ccccc2)nc2cccc(Cl)c12 [Example 28, 2-phenyl-5-chloroquinoline-4-carbonylguanidine]
inhibition at 0.1 µM [1]: 33.7%
inhibition at 1 µM [1]: 63.3%

Cc1ccccc1-c1cc(C(=O)N=C(N)N)c2ccccc2n1 [Example 4, 2-(2'-methylphenyl)quinoline-4-carbonylguanidine]
inhibition at 0.1 µM [1]: 49.2%
inhibition at 1 µM [1]: 65.6%

NC(N)=NC(=O)c1cc(-c2ccccc2C(F)(F)F)nc2ccccc12 [Example 11, 2-(2'-trifluoromethylphenyl)quinoline-4-carbonylguanidine]
inhibition at 0.1 µM [1]: 22.7%
inhibition at 1 µM [1]: 46.1%

Cc1ccc(-c2cc(C(=O)N=C(N)N)c3ccccc3n2)cc1C [Example 7, 2-(3',4'-dimethylphenyl)quinoline-4-carbonylguanidine]
inhibition at 0.1 µM [1]: 33.1%
inhibition at 1 µM [1]: 38.8%

Cc1ccc2c(C(=O)N=C(N)N)cc(-c3ccccc3)nc2c1 [Example 23, 2-phenyl-7-methylquinoline-4-carbonylguanidine]
inhibition at 0.1 µM [1]: 2.8%
inhibition at 1 µM [1]: 49.8%

NC(N)=NC(=O)c1cc(-c2ccccc2Cl)nc2ccccc12 [Example 14, 2-(2'-chlorophenyl)quinoline-4-carbonylguanidine]
inhibition at 0.1 µM [1]: 28.8%
inhibition at 1 µM [1]: 34.3%

NC(N)=NC(=O)c1cc(-c2cccc(N)c2)nc2ccccc12 [Example 20, 2-(3'-aminophenyl)quinoline-4-carbonylguanidine]
inhibition at 0.1 µM [1]: 36.2%
inhibition at 1 µM [1]: 42.2%

CC(C)c1ccccc1-c1cc(C(=O)N=C(N)N)c2ccccc2n1 [Example 5, 2-(2'-isopropylphenyl)quinoline-4-carbonylguanidine]
inhibition at 0.1 µM [1]: 29.3%
inhibition at 1 µM [1]: 42.3%

NC(N)=NC(=O)c1cc(-c2ccccc2)nc2ccccc12 [Example 1, 2-phenylquinoline-4-carbonylguanidine]
inhibition at 0.1 µM [1]: 5.2%
inhibition at 1 µM [1]: 52.8%

COc1cc(OC)c2nc(-c3ccccc3)cc(C(=O)N=C(N)N)c2c1 [Example 40, 2-phenyl-6,8-dimethoxyquinoline-4-carbonylguanidine]
inhibition at 0.1 µM [1]: 18.3%
inhibition at 1 µM [1]: 31%

Cc1cccc2c(C(=O)N=C(N)N)cc(-c3ccccc3)nc12 [Example 24, 2-phenyl-8-methylquinoline-4-carbonylguanidine]
inhibition at 0.1 µM [1]: 8.1%
inhibition at 1 µM [1]: 50%

COCCOc1cccc2c(C(=O)N=C(N)N)cc(-c3ccccc3)nc12 [Example 44, 2-phenyl-8-methoxyethyloxyquinoline-4-carbonylguanidine]
inhibition at 0.1 µM [1]: 28.4%
inhibition at 1 µM [1]: 62.9%

Cc1ccccc1-c1cc(C(=O)N=C(N)N)c2ccc(O)cc2n1 [Example 46, 2-(2'-methylphenyl)-7-hydroxyquinoline-4-carbonylguanidine]
inhibition at 0.1 µM [1]: 39.3%
inhibition at 1 µM [1]: 48.8%

N=C(N)NC(=O)c1nc(Cl)c(N)nc1N [amiloride]
suppression of cardiac hypertrophy (cardiac hypertrophy): suppresses cardiac hypertrophy

Cc1ccc(-c2cc(C(=O)N=C(N)N)c3ccccc3n2)c(C)c1 [Example 6, 2-(2',4'-dimethylphenyl)quinoline-4-carbonylguanidine]
inhibition at 0.1 µM [1]: 36.4%
inhibition at 1 µM [1]: 55.3%

CC(=O)Nc1cccc2c(C(=O)N=C(N)N)cc(-c3ccccc3)nc12 [Example 49, 2-phenyl-8-acetylaminoquinoline-4-carbonylguanidine]
inhibition at 0.1 µM [1]: 20.8%
inhibition at 1 µM [1]: 51.2%

Cc1cc(C)c(-c2cc(C(=O)N=C(N)N)c3ccccc3n2)c(C)c1 [Example 8, 2-(2',4',6'-trimethylphenyl)quinoline-4-carbonylguanidine]
inhibition at 0.1 µM [1]: 23.7%
inhibition at 1 µM [1]: 36.3%

COc1cc(OC)c2c(C(=O)N=C(N)N)cc(-c3ccccc3C)nc2c1 [Example 37, 2-(2'-methylphenyl)-5,7-dimethoxyquinoline-4-carbonylguanidine]
inhibition at 0.1 µM [1]: 70.8%
inhibition at 1 µM [1]: 84.2%
Incidence of arrhythmia, VF (ventricular fibrillation) (rat): 0/5
Incidence of arrhythmia, VT (ventricular tachycardia) (rat): 3/5
